Reference: patent US20240239788A1, “SMALL MOLECULE INHIBITORS OF KRAS G12D MUTANT” (Merck Sharp & Dohme LLC, priority 2021, published 2024)
Structures can show the parent of a compound that is named as a salt. Where two headings read alike, the source gives them in different places.

Experiments:
[1] = target: KRAS protein containing G12D mutation (Homo sapiens (Human), UniProt P01116, G12D); test: SOS-catalyzed nucleotide exchange assay (GNE), TR-FRET; format: biochemical; details: biotinylated KRAS G12D, SOS and GTP, 60-minute incubation
Protocol: Compounds are added to this complex and then after a 60-minute incubation time the mixture is treated with SOS and unlabeled GTP. Small molecule inhibitors stabilize the Bodipy-GDP complex whereas the untreated protein rapidly exchanges Bodipy-GDP for unlabeled GTP resulting in reduced TR-FRET signal.
This solution is referred to as biotinylated KRAS G12D stock solution.

[2] = system: AsPC-1 cells containing homozygous KRAS-G12D activating mutation; test: Cellular phospho-ERK assay with 10% FBS (Examples 107a-256); format: cell-based
Protocol: 5% CO2 for 2 hours. […] Assay plates were read on a EnVision Multimode Plate Reader (PerkinElmer) and the ratio of p-Erk vs total Erk in each well was used as the final readout.

[3] = Homo sapiens, ASPC1, 2 h, read-out: IC50 (nM) pERK (cell with FBS 10%), AsPC-1 cells, 10% fetal bovine serum, 2 hours, ratio of p-Erk vs total Erk
[4] = read-out: IC50 (nM) pERK (cell with FBS 10%), AsPC-1 cells, 10% fetal bovine serum, 2 hours, ratio of p-Erk vs total Erk

KRAS protein containing G12D mutation, sequence (P01116 other isoform, or with tags, fused parts or gaps G12D (already in the parent)): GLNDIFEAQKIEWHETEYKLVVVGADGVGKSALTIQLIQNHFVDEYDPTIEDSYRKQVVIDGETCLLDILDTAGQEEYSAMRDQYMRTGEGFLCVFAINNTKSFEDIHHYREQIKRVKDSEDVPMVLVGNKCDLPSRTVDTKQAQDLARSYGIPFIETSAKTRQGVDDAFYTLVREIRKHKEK

| IC50 [2, 4] [nM] | Structure (SMILES) | IC50 [1] [nM] | IC50 [2, 3] [nM] | IC50 ([2]; Homo sapiens, ASPC1, 2 h, read-out: IC50 (nM) pERK (cell with FBS 10%)) [nM] |
| --- | --- | --- | --- | --- |
|  | C[C@]12CC[C@H](CN(c3nc(OC[C@@]45CCCN4C[C@H](F)C5)nc4c(F)c(-c5c6cn[nH]c6cc6cccc(Cl)c56)c(F)cc34)C1)N2 [Ex. 187, 5-chloro-4-(6,8-difluoro-2-(((2R,7aS)-2-fluorotetrahydro-1H-pyrrolizin-7a(5H)-yl)-methoxy)-4-((1S,5R)-1-methyl-3,8-diaza-bicyclo[3.2.1]octan-3-yl)quinazolin-7-yl)-1H-benzo[f]indazole] | 27.3 | 1100 |  |
|  | C[C@]12CC[C@H](CN(c3nc(OC[C@@]45CCCN4C[C@H](F)C5)nc4c(F)c(-c5nc(N)nc6cccc(Cl)c56)c(F)cc34)C1)N2 [Ex. 188, 5-chloro-6′,8′-difluoro-2′-(((2R,7aS)-2-fluoro-tetrahydro-1H-pyrrol-izin-7a(5H)-yl)meth-oxy)-4'-((1S,5R)-1-methyl-3,8-diaza-bicyclo[3.2.1]octan-3-yl)-[4,7′-biquinazolin]-2-amine] | 3400 | 30000 |  |
|  | Fc1cc2c(N3C[C@H]4CC[C@@H](C3)N4)nc(OC[C@@]34CCCN3C[C@H](F)C4)nc2c(F)c1-c1ccnc2cccc(Cl)c12 [Ex. 194, 4-((1R,5S)-3,8-diaza-bicyclo[3.2.1]octan-3-yl)-7-(5-chloroquinolin-4-yl)-6,8-difluoro-2-(((2R,7aS)-2-fluoro-tetrahydro-1H-pyrrol-izin-7a(5H)-yl)meth-oxy)quinazoline] | 1920 | 11800 |  |
|  | C#Cc1cccc2cc3[nH]ncc3c(-c3c(F)cc4c(N5C[C@H]6CC[C@@](C)(C5)N6)nc(OC[C@@]56CCCN5C[C@H](F)C6)nc4c3F)c12 [Ex. 195, 4-(6,8-difluoro-2-(((2R, 7aS)-2-fluorotetra-hydro-1H-pyrrolizin-7a(5H)-yl)methoxy)-4-((1S,5R)-1-methyl-3,8-diazabicyclo[3.2.1]-octan-3-yl)quinazolin-7-yl)-5-ethynyl-1H-benzo[f]indazole] | 4.36 | 79.6 |  |
|  | C#Cc1ccc(F)c2cccc(-c3c(F)cc4c(N5C[C@H]6CC[C@@](C)(C5)N6)nc(OC[C@@]56CCCN5C[C@H](F)C6)nc4c3F)c12 [Ex. 196, 7-(8-ethynyl-5-fluoro-naphthalen-1-yl)-6,8-difluoro-2-(((2R,7aS)-2-fluorotetrahydro-1H-pyrrolizin-7a(5H)-yl)-methoxy)-4-((1S,5R)-1-methyl-3,8-diaza-bicyclo[3.2.1]octan-3-yl)quinazoline] | 45.7 | 3410 |  |
|  | Oc1c(F)cc(Cl)c(Cl)c1-c1c(Cl)cc2c(N3C[C@H]4CC[C@@H](C3)N4)nc(OC[C@@]34CCCN3C[C@H](F)C4)nc2c1F [Ex. 199, 2-(4-((1R,5S)-3,8-diazabicyclo[3.2.1]-octan-3-yl)-6-chloro-8-fluoro-2-(((2R,7aS)-2-fluorotetrahydro-1H-pyrrolizin-7a(5H)-yl)-methoxy)quinazolin-7-yl)-3,4-dichloro-6-fluorophenol] | 2620 | 30000 |  |
|  | CN(C[C@@]1(COc2nc(N3C[C@H]4CC[C@@](C)(C3)N4)c3cc(F)c(-c4cc(O)cc5cccc(Cl)c45)c(F)c3n2)CC1(F)F)[C@@H]1CCC[C@H]1O [Ex. 217a, 5-chloro-4-(2-(((R)-2,2-difluoro-1-((((1R,2R)-2-hydroxycyclopentyl)-(methyl)amino)methyl)cyclopropyl)methoxy)-6,8-difluoro-4-((1S,5R)-1-methyl-3,8-diazabicyclo[3.2.1]octan-3-yl)quinazolin-7-yl)naphthalen-2-ol] | 12.7 | 2640 |  |
|  | COCCN(C)C[C@@]1(COc2nc(N3CC4CC[C@@](C)(C3)N4)c3cc(F)c(-c4c(C(F)(F)F)c(C)cc5[nH]ncc45)c(F)c3n2)CC1(F)F [Ex. 223, (1S,5R)-3-(2-(((R)-2,2-difluoro-1-(((2-methoxyethyl)(methyl)amino)-methyl)cyclopropyl)methoxy)-6,8-difluoro-7-(6-methyl-5-(trifluorometh-yl)-1H-indazol-4-yl)quinazolin-4-yl)-1-methyl-3,8-diazabicyclo[3.2.1]-ocan-8-ium 2,2,2-trifluoroacetate] | 425 | 27300 |  |
|  | Cc1cc(N)nc(-c2c(Cl)cc3c(N4C[C@H]5CC[C@@H](C4)N5)nc(OC[C@@]45CCCN4C[C@H](F)C5)nc3c2F)c1C(F)(F)F [Ex. 228b, 6-(4-((1R,5S)-3,8-diazabicyclo[3.2.1]octan-3-yl)-6-chloro-8-fluoro-2-(((2R,7aS)-2-fluorotetrahydro-1H-pyrrolizin-7a(5H)-yl)methoxy)quinazolin-7-yl)-4-methyl-5-(trifluoromethyl)pyridin-2-amine] | 2.43 |  | 64.4 |
| 785 | Cc1n[nH]c2ncc(C(F)(F)F)c(-c3c(F)cc4c(N5C[C@H]6CC[C@@H](C5)N6)nc(OC[C@@]56CCCN5C[C@H](F)C6)nc4c3F)c12 [Ex. 234, 4-((1R,5S)-3,8-diazabicyclo[3.2.1]octan-3-yl)-6,8-difluoro-2-(((2R,7aS)-2-fluorotetrahydro-1H-pyrrolizin-7a(5H)-yl)methoxy)-7-(3-methyl-5-(trifluoromethyl)-1H-pyrazolo[3.4-b]pyridin-4-yl)quinazoline] | 64 |  |  |
| 68.7 | Cc1c(F)c(N)nc(-c2c(Cl)cc3c(N4C[C@H]5CC[C@@H](C4)N5)nc(OC[C@@]45CCCN4C[C@H](F)C5)nc3c2F)c1C(F)(F)F [Ex. 236] | 3.11 |  |  |
|  | Cc1cc(N)nc(-c2c(F)cc3c(N4C[C@H]5CC[C@@H](C4)N5)nc(OC[C@@]45CCCN4C[C@H](F)C5)nc3c2F)c1C1CC1 [Ex. 237, 6-(4-((1R,5S)-3,8-diazabicyclo[3.2.1]octan-3-yl)-6,8-difluoro-2-(((2R,7aS)-2-fluorotetrahydro-1H-pyrrolizin-7a(5H)-yl)methoxy)quinazolin-7-yl)-5-cyclopropyl-4-methylpyridin-2-amine] | 57.6 | 508 |  |
|  | Cc1cc(N)nc(-c2c(Cl)cc3c(N4C[C@H]5CC[C@@](C)(C4)N5)nc(OC[C@@]45CCCN4C[C@H](F)C5)nc3c2F)c1C(F)(F)F [Ex. 238a, 6-(6-chloro-8-fluoro-2-(((2R,7aS)-2-fluorotetrahydro-1H-pyrrolizin-7a(5H)-yl)methoxy)-4-((1S,5R)-1-methyl-3,8-diazabicyclo[3.2.1]octan-3-yl)quinazolin-7-yl)-4-methyl-5-(trifluoromethyl)pyridin-2-amine] | 25.7 | 1590 |  |
|  | C[C@]12CC[C@H](CN(c3nc(OC[C@@H]4CC[C@]5(CO)CCCN45)nc4c(F)c(-c5cc(O)cc6cccc(Cl)c56)c(F)cc34)C1)N2 [Ex. 243b, 5-chloro-4-(6,8-difluoro-2-(((3S,7aS)-7a-(hydroxymethyl)hexahydro-1H-pyrrolizin-3-yl)methoxy)-4-((1S,5R)-1-methyl-3,8-diazabicyclo[3.2.1]octan-3-yl)quinazolin-7-yl)naphthalen-2-ol] | 23.1 | 20500 |  |
|  | CN(C)CC1(COc2nc(N3C[C@H]4CC[C@@](C)(C3)N4)c3cc(F)c(-c4cc(O)cc5ccccc45)c(F)c3n2)CC1 [Example 115, 4-(2-((1-((dimethylamino)methyl)cyclopropyl)methoxy)-6,8-difluoro-4-((1S,5R)-1-methyl-3,8-diazabicyclo [3.2.1]octan-3-yl)quinazolin-7-yl) naphthalen-2-ol] | 10.5 | 1470 |  |
|  | CN1CCC[C@H]1COc1nc(N2CC3CC[C@@](C)(C2)N3)c2cc(F)c(-c3cc(O)cc4ccccc34)c(F)c2n1 [Example 118, 4-(6,8-difluoro-4-((1S,5R)-1-methyl-3,8-diazabicyclo [3.2.1]octan-3-yl)-2-(((S)-1-ethylpyrrolidin-2-yl)methoxy)quinazolin-7-l)naphthalen-2-ol] | 82.6 | 1810 |  |
|  | C[C@]12CC[C@H](CN(c3nc(OC[C@H]4CCNC4)nc4c(F)c(-c5cc(O)cc6ccccc56)c(Cl)cc34)C1)N2 [Example 119, 4-(6-chloro-8-fluoro-4-((1S,5R)-1-methyl-3,8-diazabicyclo[3.2.1]octan-3-yl)-2-(((S)-pyrrolidin-3-yl)methoxy)quinazolin-7-yl)naphthalen-2-ol, TFA] | 1440 | 30000 |  |
|  | C[C@]12CC[C@H](CN(c3nc(OC[C@@H]4CCN(C5CCCCC5O)C4)nc4c(F)c(-c5cc(O)cc6ccccc56)c(Cl)cc34)C1)N2 (stereo partly drawn) [Example 121, 4-(6-chloro-8-fluoro-2-(((3R)-1-(2-hydroxycyclohexyl)pyrrolidin-3-yl)methoxy)-4-((1S,5R)-1-methyl-3,8-diazabicyclo[3.2.1]octan-3-yl)quinazolin-7-yl)naphthalen-2-ol, TFA] | 615 | 11400 |  |
|  | C[C@]12CC[C@H](CN(c3nc(OC[C@@H]4CCNC4)nc4c(F)c(-c5cc(O)cc6ccccc56)c(Cl)cc34)C1)N2 [Example 122, 4-(6-chloro-8-fluoro-4-((1S,5R)-1-methyl-3,8-diazabicyclo[3.2.1]octan-3-yl)-2-(((R)-pyrrolidin-3-yl)methoxy)quinazolin-7-yl)naphthalen-2-ol, TFA] | 964 | 30000 |  |

| Structure (SMILES) | IC50 [2, 4] [nM] | IC50 [1] [nM] | IC50 [2, 3] [nM] | IC50 ([2]; Homo sapiens, ASPC1, 2 h, read-out: IC50 (nM) pERK (cell with FBS 10%)) [nM] |
| --- | --- | --- | --- | --- |
| CN(C[C@@]1(COc2nc(N3C[C@H]4CC[C@@](C)(C3)N4)c3cc(F)c(-c4cc(O)cc5cccc(Cl)c45)c(F)c3n2)CC1(F)F)[C@@H]1CCC[C@H]1O [Ex. 217b] | 8570 | 675 |  |  |
